Source: patent publication US11981658B2, “Substituted aminopyridine compounds as EGFR inhibitors” (YUHAN CORPORATION, priority 2021, dated 2024)
Read-outs that look alike come from different tables or passages of the source.

Columns and labels:
EGFR L858R/T790M/C797S = EGFR L858R/T790M/C797S (Homo sapiens, UniProt P00533, C797S/L858R/T790M); experiment: Biochemical EGFR kinase inhibition assay (Lance Ultra TR-FRET), triple mutant L858R/T790M/C797S
How it was run: (§1)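 Kinase activity is measured by TR-FRET phosphopeptide detection. Compounds span 0.003 μM to 10 μM; the 1 h reaction at room temperature is quenched with EDTA, then labelled antibody (2 nM) is incubated 60 min before reading.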

EGFR wildtype (WT) = EGFR wildtype (WT) (Homo sapiens, UniProt P00533); experiment: Biochemical EGFR kinase inhibition assay (Lance Ultra TR-FRET), wildtype
How it was run: as §1

EGFR Del19/T790M/C797S = EGFR Del19/T790M/C797S (Homo sapiens, UniProt P00533, C797S/DEL746-750/T790M); experiment: Biochemical EGFR kinase inhibition assay (Lance Ultra TR-FRET), triple mutant del19/T790M/C797S
Chain of EGFR Del19/T790M/C797S (P00533 with tags, fused parts or gaps DEL746-750/T790M/C797S): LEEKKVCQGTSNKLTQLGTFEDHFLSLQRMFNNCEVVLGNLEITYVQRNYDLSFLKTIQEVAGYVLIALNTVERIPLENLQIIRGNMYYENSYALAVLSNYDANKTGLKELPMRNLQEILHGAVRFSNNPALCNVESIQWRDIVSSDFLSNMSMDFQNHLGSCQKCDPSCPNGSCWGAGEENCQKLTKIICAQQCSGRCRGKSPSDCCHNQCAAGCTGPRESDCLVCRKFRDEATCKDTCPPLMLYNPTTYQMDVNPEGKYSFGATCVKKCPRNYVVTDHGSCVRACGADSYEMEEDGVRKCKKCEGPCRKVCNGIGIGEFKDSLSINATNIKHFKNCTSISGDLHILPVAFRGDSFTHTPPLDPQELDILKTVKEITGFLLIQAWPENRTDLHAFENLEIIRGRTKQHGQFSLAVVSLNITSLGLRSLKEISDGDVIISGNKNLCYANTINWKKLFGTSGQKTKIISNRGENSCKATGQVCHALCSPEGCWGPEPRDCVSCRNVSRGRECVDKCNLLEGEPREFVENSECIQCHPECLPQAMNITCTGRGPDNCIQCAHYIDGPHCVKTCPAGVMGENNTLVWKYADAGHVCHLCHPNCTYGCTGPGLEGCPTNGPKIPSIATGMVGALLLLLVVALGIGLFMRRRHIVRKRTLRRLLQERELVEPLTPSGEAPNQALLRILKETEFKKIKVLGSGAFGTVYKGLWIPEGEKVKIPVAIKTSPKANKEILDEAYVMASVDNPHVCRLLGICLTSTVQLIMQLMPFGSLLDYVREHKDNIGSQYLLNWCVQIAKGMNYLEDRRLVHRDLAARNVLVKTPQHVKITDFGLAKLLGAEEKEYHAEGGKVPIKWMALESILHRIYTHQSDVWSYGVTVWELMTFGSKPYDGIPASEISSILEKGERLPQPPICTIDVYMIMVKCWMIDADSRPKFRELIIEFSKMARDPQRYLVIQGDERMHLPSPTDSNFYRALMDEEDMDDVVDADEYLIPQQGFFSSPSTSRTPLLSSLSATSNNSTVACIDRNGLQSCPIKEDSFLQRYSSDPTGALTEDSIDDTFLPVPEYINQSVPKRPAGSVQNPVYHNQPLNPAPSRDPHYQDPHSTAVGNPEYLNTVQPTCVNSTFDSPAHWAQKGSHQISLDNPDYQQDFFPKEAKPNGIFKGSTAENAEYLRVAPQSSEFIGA
How it was run: as §1

EGFR Del19/C797S = EGFR Del19/C797S (Homo sapiens, UniProt P00533, C797S/DEL746-750); experiment: Biochemical EGFR kinase inhibition assay (Lance Ultra TR-FRET), double mutant del19/C797S
Chain of EGFR Del19/C797S (P00533 with tags, fused parts or gaps DEL746-750/C797S): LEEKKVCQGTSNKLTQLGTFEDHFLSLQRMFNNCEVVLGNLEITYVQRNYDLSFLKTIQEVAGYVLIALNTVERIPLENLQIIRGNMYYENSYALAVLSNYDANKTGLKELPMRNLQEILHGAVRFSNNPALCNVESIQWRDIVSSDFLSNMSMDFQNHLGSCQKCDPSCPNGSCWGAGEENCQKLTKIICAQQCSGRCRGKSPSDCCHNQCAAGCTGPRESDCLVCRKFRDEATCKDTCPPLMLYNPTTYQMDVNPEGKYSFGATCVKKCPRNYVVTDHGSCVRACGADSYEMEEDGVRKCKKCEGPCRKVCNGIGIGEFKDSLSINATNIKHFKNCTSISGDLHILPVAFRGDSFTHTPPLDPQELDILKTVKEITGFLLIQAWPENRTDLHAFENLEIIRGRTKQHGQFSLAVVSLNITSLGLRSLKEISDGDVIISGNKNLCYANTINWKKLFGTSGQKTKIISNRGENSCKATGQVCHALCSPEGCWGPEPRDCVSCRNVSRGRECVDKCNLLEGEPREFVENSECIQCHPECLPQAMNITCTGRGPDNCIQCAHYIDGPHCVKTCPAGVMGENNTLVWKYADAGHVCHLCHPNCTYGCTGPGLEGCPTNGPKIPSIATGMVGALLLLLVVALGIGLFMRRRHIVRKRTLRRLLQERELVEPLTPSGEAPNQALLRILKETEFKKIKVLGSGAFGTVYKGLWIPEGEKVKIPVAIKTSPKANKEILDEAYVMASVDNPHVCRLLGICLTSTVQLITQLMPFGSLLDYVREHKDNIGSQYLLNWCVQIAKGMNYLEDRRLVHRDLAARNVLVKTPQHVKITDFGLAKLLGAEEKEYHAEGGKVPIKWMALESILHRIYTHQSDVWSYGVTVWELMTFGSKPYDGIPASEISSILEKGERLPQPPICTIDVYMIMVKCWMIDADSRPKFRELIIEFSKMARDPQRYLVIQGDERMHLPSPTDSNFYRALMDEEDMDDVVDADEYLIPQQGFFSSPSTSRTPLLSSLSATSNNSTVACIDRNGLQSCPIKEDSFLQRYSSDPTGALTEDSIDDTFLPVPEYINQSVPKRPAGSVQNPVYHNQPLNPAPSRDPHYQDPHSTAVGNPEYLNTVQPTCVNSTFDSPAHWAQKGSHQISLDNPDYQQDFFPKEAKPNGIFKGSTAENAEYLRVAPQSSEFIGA
How it was run: as §1

EGFR L858R/C797S = EGFR L858R/C797S (Homo sapiens, UniProt P00533, C797S/L858R); experiment: Biochemical EGFR kinase inhibition assay (Lance Ultra TR-FRET), double mutant L858R/C797S
Chain of EGFR L858R/C797S (P00533 25-1210 C797S/L858R): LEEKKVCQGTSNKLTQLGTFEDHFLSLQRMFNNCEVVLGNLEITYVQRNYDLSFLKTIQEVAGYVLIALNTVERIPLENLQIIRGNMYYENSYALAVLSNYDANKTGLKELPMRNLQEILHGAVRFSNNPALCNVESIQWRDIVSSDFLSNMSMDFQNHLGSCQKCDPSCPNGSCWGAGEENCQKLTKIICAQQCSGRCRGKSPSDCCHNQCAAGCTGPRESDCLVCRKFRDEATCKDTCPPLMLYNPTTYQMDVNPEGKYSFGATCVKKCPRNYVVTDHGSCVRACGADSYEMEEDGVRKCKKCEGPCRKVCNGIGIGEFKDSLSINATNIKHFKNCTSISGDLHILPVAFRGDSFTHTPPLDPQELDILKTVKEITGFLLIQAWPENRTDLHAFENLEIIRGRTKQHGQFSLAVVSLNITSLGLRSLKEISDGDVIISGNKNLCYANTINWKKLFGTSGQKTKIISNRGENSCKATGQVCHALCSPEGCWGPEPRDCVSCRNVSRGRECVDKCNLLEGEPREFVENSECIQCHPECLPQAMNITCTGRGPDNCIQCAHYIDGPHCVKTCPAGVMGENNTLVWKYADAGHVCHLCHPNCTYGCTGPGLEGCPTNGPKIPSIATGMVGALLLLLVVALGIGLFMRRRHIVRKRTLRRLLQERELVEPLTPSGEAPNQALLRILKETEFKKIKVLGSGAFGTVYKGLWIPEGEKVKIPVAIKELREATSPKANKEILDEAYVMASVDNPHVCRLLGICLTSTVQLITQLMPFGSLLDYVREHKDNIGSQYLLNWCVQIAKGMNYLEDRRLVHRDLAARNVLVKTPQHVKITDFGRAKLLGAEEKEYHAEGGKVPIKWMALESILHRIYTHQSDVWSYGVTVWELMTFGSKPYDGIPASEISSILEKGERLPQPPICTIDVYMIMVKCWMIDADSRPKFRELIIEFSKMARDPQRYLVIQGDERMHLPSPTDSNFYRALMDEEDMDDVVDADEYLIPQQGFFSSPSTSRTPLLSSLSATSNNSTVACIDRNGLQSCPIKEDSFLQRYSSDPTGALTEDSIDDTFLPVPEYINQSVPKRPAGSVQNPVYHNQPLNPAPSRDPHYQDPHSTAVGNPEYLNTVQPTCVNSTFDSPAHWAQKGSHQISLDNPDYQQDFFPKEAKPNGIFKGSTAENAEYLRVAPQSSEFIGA
How it was run: as §1

[1] = IC50 L858R/T790M/C797S (nM), 100 μM ATP
[2] = IC50 Del19/T790M/C797S (nM), 100 μM ATP
[3] = IC50 Del19/C797S (nM), 100 μM ATP
[4] = IC50 L858R/C797S (nM), 100 μM ATP
[5] = Km ATP, read-out: IC50 L858R/T790M/C797S (nM), Km ATP
[6] = Km ATP, read-out: IC50 WT (nM), Km ATP
[7] = Km ATP, read-out: IC50 Del19/T790M/C797S (nM), Km ATP
[8] = Km ATP, read-out: IC50 Del19/C797S (nM), Km ATP
[9] = Km ATP, read-out: IC50 L858R/C797S (nM), Km ATP
[10] = Km ATP, read-out: IC50 L858R/T790M/C797S (nM) Km ATP
[11] = Km ATP, read-out: IC50 WT (nM) Km ATP
[12] = Km ATP, read-out: IC50 Del19/T790M/C797S (nM) Km ATP
[13] = Km ATP, read-out: IC50 Del19/C797S (nM) Km ATP
[14] = Km ATP, read-out: IC50 L858R/C797S (nM) Km ATP

Chain of EGFR L858R/T790M/C797S (P00533 25-1210 T790M/C797S/L858R): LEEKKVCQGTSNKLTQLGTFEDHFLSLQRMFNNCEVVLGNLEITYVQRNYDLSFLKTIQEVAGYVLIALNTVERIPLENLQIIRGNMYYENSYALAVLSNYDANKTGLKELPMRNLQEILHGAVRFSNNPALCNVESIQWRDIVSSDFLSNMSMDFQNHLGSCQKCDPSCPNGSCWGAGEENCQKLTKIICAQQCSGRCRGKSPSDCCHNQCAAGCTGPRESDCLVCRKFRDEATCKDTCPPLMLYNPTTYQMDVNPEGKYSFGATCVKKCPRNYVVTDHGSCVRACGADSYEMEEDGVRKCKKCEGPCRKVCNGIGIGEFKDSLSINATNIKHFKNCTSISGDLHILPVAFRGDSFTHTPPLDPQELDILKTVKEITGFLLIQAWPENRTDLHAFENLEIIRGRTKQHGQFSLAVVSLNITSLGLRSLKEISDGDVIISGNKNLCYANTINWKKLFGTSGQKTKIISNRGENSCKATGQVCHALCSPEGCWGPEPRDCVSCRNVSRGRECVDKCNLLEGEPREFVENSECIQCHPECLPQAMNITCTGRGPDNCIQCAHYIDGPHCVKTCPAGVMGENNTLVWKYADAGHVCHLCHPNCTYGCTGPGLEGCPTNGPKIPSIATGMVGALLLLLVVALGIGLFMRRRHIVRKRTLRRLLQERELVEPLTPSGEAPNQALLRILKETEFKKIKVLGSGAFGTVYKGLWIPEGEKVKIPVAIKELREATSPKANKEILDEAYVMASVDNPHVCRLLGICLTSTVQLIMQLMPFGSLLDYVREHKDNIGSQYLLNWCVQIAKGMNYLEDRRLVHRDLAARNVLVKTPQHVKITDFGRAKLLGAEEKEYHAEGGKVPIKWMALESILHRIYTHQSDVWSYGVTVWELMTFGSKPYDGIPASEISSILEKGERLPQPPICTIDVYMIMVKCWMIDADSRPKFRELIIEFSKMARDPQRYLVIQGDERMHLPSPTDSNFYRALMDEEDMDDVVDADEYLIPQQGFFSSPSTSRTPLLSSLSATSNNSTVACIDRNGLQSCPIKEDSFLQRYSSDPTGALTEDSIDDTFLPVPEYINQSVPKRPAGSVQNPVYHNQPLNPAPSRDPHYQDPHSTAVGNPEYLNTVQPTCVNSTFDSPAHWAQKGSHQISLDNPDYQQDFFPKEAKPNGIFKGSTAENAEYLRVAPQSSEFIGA

| SMILES | IC50 (EGFR L858R/T790M/C797S; ATP at Km, read-out: IC50 L858R/T790M/C797S (nM), Km ATP) [nM] | IC50 (EGFR L858R/T790M/C797S; [1]) [nM] | IC50 (EGFR wildtype (WT); ATP at Km, read-out: IC50 WT (nM), Km ATP) [nM] | IC50 (EGFR wildtype (WT); IC50 WT (nM), 100 μM ATP) [nM] | IC50 (EGFR Del19/T790M/C797S; ATP at Km, read-out: IC50 Del19/T790M/C797S (nM), Km ATP) [nM] | IC50 (EGFR Del19/T790M/C797S; [2]) [nM] | IC50 (EGFR Del19/C797S; ATP at Km, read-out: IC50 Del19/C797S (nM), Km ATP) [nM] | IC50 (EGFR Del19/C797S; [3]) [nM] | IC50 (EGFR L858R/C797S; ATP at Km, read-out: IC50 L858R/C797S (nM), Km ATP) [nM] | IC50 (EGFR L858R/C797S; [4]) [nM] | IC50 (EGFR L858R/T790M/C797S; [5]) [nM] | IC50 (EGFR wildtype (WT); [6]) [nM] | IC50 (EGFR Del19/T790M/C797S; [7]) [nM] | IC50 (EGFR Del19/C797S; [8]) [nM] | IC50 (EGFR L858R/C797S; [9]) [nM] | IC50 (EGFR L858R/T790M/C797S; [10]) [nM] | IC50 (EGFR wildtype (WT); [11]) [nM] | IC50 (EGFR Del19/T790M/C797S; [12]) [nM] | IC50 (EGFR Del19/C797S; [13]) [nM] | IC50 (EGFR L858R/C797S; [14]) [nM] |
| --- | --- | --- | --- | --- | --- | --- | --- | --- | --- | --- | --- | --- | --- | --- | --- | --- | --- | --- | --- | --- |
| Cn1cc(C#Cc2cnc(Nc3ccnc(-c4cnn(S(=O)(=O)C5CC5)c4)n3)cc2N2CC3(CCNCC3)C2)cn1 [Example 155, 2-(1-(Cyclopropylsulfonyl)-1H-pyrazol-4-yl)-N-(5-((1-methyl-1H-pyrazol-4-yl)ethynyl)-4-(2,7-diazaspiro[3.5]nonan-2-yl)pyridin-2-yl)pyrimidin-4-amine] | 0.5 | 1.9 | 90.6 | > 10000 | 0.6 | 0.6 | 20.8 | 34.3 | 19.4 | 309 |  |  |  |  |  |  |  |  |  |  |
| CC1OCCC1C#Cc1cnc(Nc2ccnc(-c3cnn(S(=O)(=O)C4CC4)c3)n2)cc1N1CCC(C)(CO)CC1 (stereo not shown) [Example 438, (1-(2-((2-(1-(Cyclopropylsulfonyl)-1H-pyrazol-4-yl)pyrimidin-4-yl)amino)-5-((2-methyltetrahydrofuran-3-yl)ethynyl)pyridin-4-yl)-4-methylpiperidin-4-yl)methanol] |  | 0.7 |  | 6420 |  | 0.3 |  | 3.3 |  | 85.5 | 0.2 | 5.8 | 0.3 | 1.7 | 1.9 |  |  |  |  |  |
| CN(C)CCC1CCCN(c2cc(Nc3ccnc(-c4cnn(S(=O)(=O)C5CC5)c4)n3)ncc2C#Cc2cnn(CCF)c2)C1 (stereo not shown) [Example 386, 2-(1-(Cyclopropylsulfonyl)-1H-pyrazol-4-yl)-N-(4-(3-(2-(dimethylamino)ethyl)piperidin-1-yl)-5-((1-(2-fluoroethyl)-1H-pyrazol-4-yl)ethynyl)pyridin-2-yl)pyrimidin-4-amine] |  | 0.4 |  | 1790 |  | 0.3 |  | 1.4 |  | 7.6 | 0.1 | 3 | 0.1 | 0.9 | 0.9 |  |  |  |  |  |
| Cn1cc(C#Cc2cnc(Nc3ccnc(-c4cnn(S(=O)(=O)C5CC5)c4)n3)cc2N2CCC3(CCNC3=O)CC2)cn1 [Example 79, 8-(2-((2-(1-(Cyclopropylsulfonyl)-1H-pyrazol-4-yl)pyrimidin-4-yl)amino)-5-((1-methyl-1H-pyrazol-4-yl)ethynyl)pyridin-4-yl)-2,8-diazaspiro[4.5]decan-1-one] |  | 0.8 |  | 7190 |  | 0.3 |  | 1.3 |  | 17.8 |  |  |  |  |  | 0.1 | 6.1 | 0.2 | 1.3 | 1.2 |
| CN(C)CCCn1cc(C#Cc2cnc(Nc3ccnc(-c4cnn(S(=O)(=O)C5CC5)c4)n3)cc2N2CCCC(CO)C2)cn1 (stereo not shown) [Example 122, (1-(2-((2-(1-(Cyclopropylsulfonyl)-1H-pyrazol-4-yl)pyrimidin-4-yl)amino)-5-((1-(3-(dimethylamino)propyl)-1H-pyrazol-4-yl)ethynyl)pyridin-4-yl)piperidin-3-yl)methanol] |  | 0.5 |  | 2780 |  | 0.5 |  | 0.8 |  | 11.8 |  |  |  |  |  | 0.2 | 7.8 | 0.4 | 0.6 | 0.5 |
| O=S(=O)(C1CC1)N1CCC(C#Cc2cnc(Nc3ccnc(-c4cnn(S(=O)(=O)C5CC5)c4)n3)cc2NC2CCC(CO)CC2)C1 (stereo not shown) [Example 393, ((1s,4s)-4-((2-((2-(1-(Cyclopropylsulfonyl)-1H-pyrazol-4-yl)pyrimidin-4-yl)amino)-5-((1-(cyclopropylsulfonyl)pyrrolidin-3-yl)ethynyl)pyridin-4-yl)amino)cyclohexyl)methanol] |  | 1.2 |  | > 10000 |  | 0.6 |  | 7.9 |  | 50 | 0.4 | 21.3 | 0.5 | 7.3 | 3.4 |  |  |  |  |  |

Continued by falling IC50 (EGFR L858R/T790M/C797S; [1]), values first:

| IC50 (EGFR L858R/T790M/C797S; ATP at Km, read-out: IC50 L858R/T790M/C797S (nM), Km ATP) [nM] | IC50 (EGFR L858R/T790M/C797S; [1]) [nM] | IC50 (EGFR wildtype (WT); ATP at Km, read-out: IC50 WT (nM), Km ATP) [nM] | IC50 (EGFR wildtype (WT); IC50 WT (nM), 100 μM ATP) [nM] | IC50 (EGFR Del19/T790M/C797S; ATP at Km, read-out: IC50 Del19/T790M/C797S (nM), Km ATP) [nM] | IC50 (EGFR Del19/T790M/C797S; [2]) [nM] | IC50 (EGFR Del19/C797S; ATP at Km, read-out: IC50 Del19/C797S (nM), Km ATP) [nM] | IC50 (EGFR Del19/C797S; [3]) [nM] | IC50 (EGFR L858R/C797S; ATP at Km, read-out: IC50 L858R/C797S (nM), Km ATP) [nM] | IC50 (EGFR L858R/C797S; [4]) [nM] | IC50 (EGFR L858R/T790M/C797S; [5]) [nM] | IC50 (EGFR wildtype (WT); [6]) [nM] | IC50 (EGFR Del19/T790M/C797S; [7]) [nM] | IC50 (EGFR Del19/C797S; [8]) [nM] | IC50 (EGFR L858R/C797S; [9]) [nM] | IC50 (EGFR L858R/T790M/C797S; [10]) [nM] | IC50 (EGFR wildtype (WT); [11]) [nM] | IC50 (EGFR Del19/T790M/C797S; [12]) [nM] | IC50 (EGFR Del19/C797S; [13]) [nM] | IC50 (EGFR L858R/C797S; [14]) [nM] | SMILES |
| --- | --- | --- | --- | --- | --- | --- | --- | --- | --- | --- | --- | --- | --- | --- | --- | --- | --- | --- | --- | --- |
|  | 7.9 |  | > 10000 |  | 3.1 |  | 75.5 |  | 1290 | 3.4 | 226 | 2.9 | 33.3 | 37.9 |  |  |  |  |  | O=S(=O)(C1CC1)n1cc(-c2nccc(Nc3cc(NC[C@H]4CC[C@H](CO)CC4)c(C#Cc4cnn(CCF)c4)cn3)n2)cn1 [Example 381, ((1 r,4r)-4-(((2-((2-(1-(Cyclopropylsulfonyl)-1H-pyrazol-4-yl)pyrimidin-4-yl)amino)-5-((1-(2-fluoroethyl)-1H-pyrazol-4-yl)ethynyl)pyridin-4-yl)amino)methyl)cyclohexyl)methanol] |
|  | 3.5 |  | > 10000 |  | 1.8 |  | 7 |  | 50.8 |  |  |  |  |  | 1 | 114 | 1.8 | 3.5 | 3.1 | O=S(=O)(C1CC1)n1cc(-c2nccc(Nc3cc(NC4CCC(O)CC4)c(C#Cc4cnn(C5CC5(F)F)c4)cn3)n2)cn1 (stereo not shown) [Example 85, (1s,4s)-4-((2-((2-(1-(Cyclopropylsulfonyl)-1H-pyrazol-4-yl)pyrimidin-4-yl)amino)-5-((1-(2,2-difluorocyclopropyl)-1H-pyrazol-4-yl)ethynyl)pyridin-4-yl)amino)cyclohexan-1-ol] |
|  | 2.4 |  | > 10000 |  | 1.2 |  | 8.2 |  | 94.9 |  |  |  |  |  |  |  |  |  |  | CN1CCN(Cc2ccc(C#Cc3cnc(Nc4ccnc(-c5cnn(S(=O)(=O)C6CC6)c5)n4)cc3NC[C@H]3CC[C@](C)(O)CC3)cc2)CC1 [Example 363, (1r,4r)-4-(((2-((2-(1-(Cyclopropylsulfonyl)-1H-pyrazol-4-yl)pyrimidin-4-yl)amino)-5-((4-((4-methylpiperazin-1-yl)methyl)phenyl)ethynyl)pyridin-4-yl)amino)methyl)-1-methylcyclohexan-1-ol] |
|  | 1.4 |  | 2310 |  | 1.2 |  | 2.6 |  | 12.7 |  |  |  |  |  |  |  |  |  |  | O=S(=O)(C1CC1)n1cc(-c2nccc(Nc3cc(N[C@H]4CCC[C@H](O)C4)c(C#Cc4cnn(CCF)c4)cn3)n2)cn1 [Example 44, (1S,3S)-3-((2-((2-(1-(Cyclopropylsulfonyl)-1H-pyrazol-4-yl)pyrimidin-4-yl)amino)-5-((1-(2-fluoroethyl)-1H-pyrazol-4-yl)ethynyl)pyridin-4-yl)amino)cyclohexan-1-ol] |
|  | 1.1 |  | > 10000 |  | 0.5 |  | 4.4 |  | 16.7 | 0.1 | 7.2 | 0.3 | 2.5 | 2.9 |  |  |  |  |  | O=S(=O)(C1CC1)n1cc(-c2nccc(Nc3cc(N4CCC5(CCCO5)CC4)c(C#Cc4ncc(CN5CCOCC5)cn4)cn3)n2)cn1 [Example 366, 2-(1-(Cyclopropylsulfonyl)-1H-pyrazol-4-yl)-N-(5-((5-(morpholinomethyl)pyrimidin-2-yl)ethynyl)-4-(1-oxa-8-azaspiro[4.5]decan-8-yl)pyridin-2-yl)pyrimidin-4-amine] |
